Experimental data: patent publication US12533321B2, “Polypeptide formulations for oral delivery” (Bhami's Research Laboratory, Pvt. Ltd., priority 2022, dated 2026)

Columns and labels:
[1] = Pharmacokinetics of PTH (1-34) in albumin crystal capsule (Vitamin E) vs IV, plasma PTH (1-34) by ELISA; format: in vivo, Minipigs (Yorkshire); settings: 0.04 mg
Description: The PTH (1-34) was processed to prepare albumin microparticles containing PTH according to the procedure mentioned under Example 4. The microparticle of albumin crystals containing PTH was then lyophilized after washing with cold isopropanol. […] The capsule was then closed.
(§1) Pigs in the oral treatment group was either fasted overnight or fed prior to the test sample administration. […] The time of dosage of each animal was noted. […] An antibody, anti-PTH (1-34) was pre-coated onto a 96-well plate. […] The intensity of the yellow color is proportional to the PTH (1-34) amount bound on the plate.

[2] = Pharmacokinetics of PTH (1-34) in albumin crystal sugar truffle shell vs IV, plasma PTH (1-34) by ELISA; format: in vivo, Minipigs (Yorkshire); settings: 0.04 mg
Description: The PTH (1-34) was processed to prepare albumin microparticles containing PTH according to the procedure mentioned under Example 4. The microparticle of albumin crystals containing PTH was then lyophilized after washing with cold isopropanol.
as §1

[3] = Pharmacokinetics of Octreotide in albumin crystal sugar truffle shell vs IV, plasma Octreotide by ELISA; format: in vivo, Wistar Rats; settings: 0.1 mg
Description: Rats in the oral treatment group was fasted overnight. […] The time of dosage of each animal was noted. […] Biosystems protocol.

[4] = female, Yorkshire, minipig, plasma, iv
[5] = female, Yorkshire, minipig, plasma, iv, IV, read-out: AUC 0-inf_pred
[6] = female, Yorkshire, minipig, plasma, iv, IV, read-out: AUC 0-t
[7] = female, Yorkshire, minipig, plasma, iv, IV, read-out: AUC t-inf_obs
[8] = female, Yorkshire, minipig, plasma, iv, IV, read-out: AUC t-inf_pred
[9] = female, Yorkshire, minipig, plasma, iv, IV, read-out: MRT 0-inf_obs
[10] = female, Yorkshire, minipig, plasma, iv, IV, read-out: MRT 0-inf_pred
[11] = female, Yorkshire, minipig, plasma, iv, read-out: MRT 0-t
[12] = female, Yorkshire, minipig, plasma, iv, read-out: t½ (converted)

CC[C@H](C)[C@H](NC(=O)[C@H](CCC(=O)O)NC(=O)[C@H](CO)NC(=O)[C@@H](NC(=O)[C@@H](N)CO)C(C)C)C(=O)N[C@@H](CCC(N)=O)C(=O)N[C@@H](CC(C)C)C(=O)N[C@@H](CCSC)C(=O)N[C@@H](Cc1cnc[nH]1)C(=O)N[C@@H](CC(N)=O)C(=O)N[C@@H](CC(C)C)C(=O)NCC(=O)N[C@@H](CCCCN)C(=O)N[C@@H](Cc1cnc[nH]1)C(=O)N[C@@H](CC(C)C)C(=O)N[C@@H](CC(N)=O)C(=O)N[C@@H](CO)C(=O)N[C@@H](CCSC)C(=O)N[C@@H](CCC(=O)O)C(=O)N[C@@H](CCCN=C(N)N)C(=O)N[C@H](C(=O)N[C@@H](CCC(=O)O)C(=O)N[C@@H](Cc1c[nH]c2ccccc12)C(=O)N[C@@H](CC(C)C)C(=O)N[C@@H](CCCN=C(N)N)C(=O)N[C@@H](CCCCN)C(=O)N[C@@H](CCCCN)C(=O)N[C@@H](CC(C)C)C(=O)N[C@@H](CCC(N)=O)C(=O)N[C@@H](CC(=O)O)C(=O)N[C@H](C(=O)N[C@@H](Cc1cnc[nH]1)C(=O)N[C@@H](CC(N)=O)C(=O)N[C@@H](Cc1ccccc1)C(=O)O)C(C)C)C(C)C [PTH (1-34)]
AUMC 0-inf_obs ([1]; IV): 4903.835 pg/ml * h^2 | AUMC 0-inf_pred ([1]; IV): 4888.052 pg/ml * h^2 | AUMC 0-t/0-inf_obs ([1]; IV): 0.779 | AUMC 0-t/0-inf_pred ([1]; IV): 0.782 | AUMC t-inf_pred ([1]; IV): 1065.980 pg/ml * h^2 | AUMC_0-t ([1]; IV): 3822.072 pg/ml * h^2 | AUMC_t-inf obs ([1]; IV): 1081.763 pg/ml * h^2 | Cl_obs ([1]; IV): 0.000 (mg)/(pg/ml)/h | Cl_pred ([1]; IV): 0.000 (mg)/(pg/ml)/h | Clast_obs ([1]; IV): 15.430 pg/mL | Clast_pred ([1]; IV): 15.205 pg/mL | Lambda_z ([1]; IV): 0.233 h⁻¹ | Tlast ([1]; IV): 12.000 h | C0 [1, 4]: 1.43 ng/mL | Cmax [1, 4]: 2.9 ng/mL | Tmax [1, 4]: 9.6 min | AUC(0-inf) ([1]; female, Yorkshire, minipig, plasma, iv, IV, read-out: AUC 0-inf obs): 2.72 ng·h/mL | AUC(0-inf) [1, 5]: 2.72 ng·h/mL | AUC(0-t) [1, 6]: 2.65 ng·h/mL | AUC(0-t) [1, 7]: 0.0664 ng·h/mL | AUC(0-t) [1, 8]: 0.0654 ng·h/mL | MRT inf [1, 9]: 1.8 h | MRT inf [1, 10]: 1.8 h | MRT last [1, 11]: 1.44 h | half-life [1, 12]: 179 min | level at 0 h ([1]; female, Yorkshire, minipig, plasma, 0 h, IV, read-out: Mean PTH (1-34) levels): 1.43 ± 0.105 ng/mL | level at 0.08 h ([1]; female, Yorkshire, minipig, plasma, 0.08 h, IV, read-out: Mean PTH (1-34) levels): 2.82 ± 0.197 ng/mL | level at 0.16 h ([1]; female, Yorkshire, minipig, plasma, 0.16 h, IV, read-out: Mean PTH (1-34) levels): 2.9 ± 0.307 ng/mL | level at 0.5 h ([1]; female, Yorkshire, minipig, plasma, 0.5 h, IV, read-out: Mean PTH (1-34) levels): 1.62 ± 0.23 ng/mL | level at 1 h ([1]; female, Yorkshire, minipig, plasma, 1 h, IV, read-out: Mean PTH (1-34) levels): 0.421 ± 0.126 ng/mL | level at 2 h ([1]; female, Yorkshire, minipig, plasma, 2 h, IV, read-out: Mean PTH (1-34) levels): 0.165 ± 0.0395 ng/mL | level at 4 h ([1]; female, Yorkshire, minipig, plasma, 4 h, IV, read-out: Mean PTH (1-34) levels): 0.0908 ± 0.00755 ng/mL | level at 12 h ([1]; female, Yorkshire, minipig, plasma, 12 h, IV, read-out: Mean PTH (1-34) levels): 0.0154 ± 0.00157 ng/mL | Mean PTH (1-34) levels ([2]; 0 h, IV): 1429.01 ± 104.61 pg/mL | Mean PTH (1-34) levels ([2]; 0.08 h, IV): 2822.98 ± 196.91 pg/mL | Mean PTH (1-34) levels ([2]; 0.16 h, IV): 2898.29 ± 307.43 pg/mL | Mean PTH (1-34) levels ([2]; 0.5 h, IV): 1619.38 ± 229.76 pg/mL | Mean PTH (1-34) levels ([2]; 1 h, IV): 421.23 ± 126.34 pg/mL | Mean PTH (1-34) levels ([2]; 2 h, IV): 164.93 ± 39.5 pg/mL | Mean PTH (1-34) levels ([2]; 4 h, IV): 90.76 ± 7.55 pg/mL | Mean PTH (1-34) levels ([2]; 12 h, IV): 15.43 ± 1.57 pg/mL | AUMC 0-inf_obs ([2]; IV): 4903.835 pg/ml * h^2 | AUMC 0-inf_pred ([2]; IV): 4888.052 pg/ml * h^2 | AUMC 0-t ([2]; IV): 3822.072 pg/ml * h^2 | AUMC 0-t/0-inf_obs ([2]; IV): 0.779 | AUMC 0-t/0-inf_pred ([2]; IV): 0.782 | AUMC t-inf_obs ([2]; IV): 1081.763 pg/ml * h^2 | AUMC t-inf_pred ([2]; IV): 1065.980 pg/ml * h^2 | Cl_obs ([2]; IV): 0.000 (mg)/(pg/ml)/h | Cl_pred ([2]; IV): 0.000 (mg)/(pg/ml)/h | Clast_pred ([2]; IV): 15.205 pg/mL | Lambda_z ([2]; IV): 0.233 h⁻¹ | Tlast ([2]; IV): 12.000 h | C0 [2, 4]: 1.43 ng/mL | Cmax [2, 4]: 2.9 ng/mL | Tmax [2, 4]: 9.6 min | AUC(0-inf) ([2]; female, Yorkshire, minipig, plasma, iv, IV, read-out: AUC 0-inf_obs): 2.72 ng·h/mL | AUC(0-inf) [2, 5]: 2.72 ng·h/mL | AUC(0-t) [2, 6]: 2.65 ng·h/mL | AUC(0-t) [2, 7]: 0.0664 ng·h/mL | AUC(0-t) [2, 8]: 0.0654 ng·h/mL | MRT inf [2, 9]: 1.8 h | MRT inf [2, 10]: 1.8 h | level at 12 h ([2]; female, Yorkshire, minipig, plasma, iv, read-out: Clast_obs): 0.0154 ng/mL | MRT last [2, 11]: 1.44 h | half-life [2, 12]: 179 min

C[C@@H](O)[C@@H]1NC(=O)[C@H](CCCCN)NC(=O)[C@@H](Cc2c[nH]c3ccccc23)NC(=O)[C@H](Cc2ccccc2)NC(=O)[C@@H](NC(=O)[C@H](N)Cc2ccccc2)CSSC[C@@H](C(=O)N[C@H](CO)[C@@H](C)O)NC1=O (relative stereo) [Octreotide, L-cysteinamide, D-phenylalanyl-L-cysteinyl-L-phenylalanyl-D-tryptophyl-L-lysyl-L-threonyl-N-[2-hydroxy-1-(hydroxy-methyl)propyl]-, cyclic (2→7)-disulfide; [R-(R*,R*)]]
Cl_pred ([3]; IV): 6.036E−06 (mg)/(ng/ml)/h | Vss_obs ([3]; IV): 0.0001111 (mg)/(ng/ml) | Vss_pred ([3]; IV): 0.0001107 (mg)/(ng/ml) | Vz_obs ([3]; IV): 0.0001106 (mg)/(ng/ml) | Vz_pred ([3]; IV): 0.0001118 (mg)/(ng/ml) | C0 ([3]; male, Wistar, rat, in vivo, iv): 3830 ng/mL | Cmax ([3]; male, Wistar, rat, in vivo, iv): 5390 ng/mL | Tmax ([3]; male, Wistar, rat, in vivo, iv): 2 h | AUC(0-inf) ([3]; male, Wistar, rat, in vivo, iv, IV, read-out: AUC 0-inf_obs): 105 µg·h/mL | AUC(0-inf) ([3]; male, Wistar, rat, in vivo, iv, IV, read-out: AUC 0-inf_pred): 104 µg·h/mL | AUC(0-t) ([3]; male, Wistar, rat, in vivo, iv, IV, read-out: AUC 0-t): 74200 ng·h/mL | AUC(0-t) ([3]; male, Wistar, rat, in vivo, iv, IV, read-out: AUC t-inf_obs): 30500 ng·h/mL | AUC(0-t) ([3]; male, Wistar, rat, in vivo, iv, IV, read-out: AUC t-inf_pred): 29400 ng·h/mL | MRT inf ([3]; male, Wistar, rat, in vivo, iv, IV, read-out: MRT 0-inf_obs): 18.6 h | MRT inf ([3]; male, Wistar, rat, in vivo, iv, IV, read-out: MRT 0-inf_pred): 18.3 h | MRT last ([3]; male, Wistar, rat, in vivo, iv, read-out: MRT 0-t): 8.78 h | half-life ([3]; male, Wistar, rat, in vivo, iv, read-out: t½ (converted)): 770 min | level at 0 h ([3]; male, Wistar, rat, in vivo, 0 h, IV): 3830 ± 1290 ng/mL | level at 0.25 h ([3]; male, Wistar, rat, in vivo, 0.25 h, IV): 4390 ± 559 ng/mL | level at 0.5 h ([3]; male, Wistar, rat, in vivo, 0.5 h, IV): 3170 ± 924 ng/mL | level at 1 h ([3]; male, Wistar, rat, in vivo, 1 h, IV): 4130 ± 1170 ng/mL | level at 2 h ([3]; male, Wistar, rat, in vivo, 2 h, IV): 5390 ± 356 ng/mL | level at 4 h ([3]; male, Wistar, rat, in vivo, 4 h, IV): 5150 ± 704 ng/mL | level at 8 h ([3]; male, Wistar, rat, in vivo, 8 h, IV): 3160 ± 1390 ng/mL
